# Source: patent publication US12577256B2, “Aryl receptor modulators and methods of making and using the same” (Nogra Pharma Limited, priority 2014, dated 2026)
# What was measured:
# [1] = system: IFN-γ; assay: IFN-γ RNA expression in anti-CD3/anti-CD28 stimulated PBMC (real-time PCR); type: cell-based, human; settings: anti-CD3/anti-CD28, 100, 200 or 400 nM compound, 24 hours, RNA (FIG. 24)
# Method: (§1) Peripheral blood mononuclear cells (PBMC), isolated from 3 healthy subjects, were isolated by density gradient centrifugation (Lymphoprep; Nycomed Pharma) from 5 mL heparinized blood samples. PBMC were resuspended in RPMI 1640 supplemented with 10% fetal calf serum at a concentration of 1×10^6 cells/mL, cultured in 24-well culture plates (Falcon Plastic) and stimulated with medium alone or anti-CD3/anti-CD28 (Miltenyi Biotec) antibodies with or without 100, 200, or 400 nM of AhR binding compounds (02, 04, 13, 15, 17, or 24), dimethyl sulfoxide or 6-formylindolo[3,2-b]cathazole (Ficz, 200 nM). Total RNA was extracted from cells cultured for 24 hours. For RNA preparation, cells were lysed in 1 mL of guanidium thiocyanate buffer and subjected to phenol/chloroform extraction using TRizol reagent (Invitrigen). The sample obtained was quantitated by absothance at 260 nm and complementary DNA (cDNA) was synthetized from […] of total RNA. cDNA was amplified using the following conditions: denaturation for 1 minute at 95° C.; annealing for 30 seconds at 58° C. for IFN-γ, and 60° C. for f3-actin; and followed by 30 seconds of extension at 72° C. […] IL-22 was evaluated using commercially available TaqMan probes (Applied Biosystems). β-actin (forward (SEQ ID NO. 3) 5′-[…]-3′, reverse (SEQ ID NO.4) 5′-[…]-3′) was used as a housekeeping gene. Gene expression was calculated using the AACt algorithm.
# [2] = system: IL-22; assay: IL-22 RNA expression in anti-CD3/anti-CD28 stimulated PBMC (real-time PCR); type: cell-based, human; settings: anti-CD3/anti-CD28, 100, 200 or 400 nM compound, 24 hours, RNA (FIG. 24)
# Method: as §1
# [3] = cited from earlier work
# [4] = target: T1, AhR (Homo sapiens, UniProt P35869); settings: cited from earlier work
# T1 sequence (P35869 11-848): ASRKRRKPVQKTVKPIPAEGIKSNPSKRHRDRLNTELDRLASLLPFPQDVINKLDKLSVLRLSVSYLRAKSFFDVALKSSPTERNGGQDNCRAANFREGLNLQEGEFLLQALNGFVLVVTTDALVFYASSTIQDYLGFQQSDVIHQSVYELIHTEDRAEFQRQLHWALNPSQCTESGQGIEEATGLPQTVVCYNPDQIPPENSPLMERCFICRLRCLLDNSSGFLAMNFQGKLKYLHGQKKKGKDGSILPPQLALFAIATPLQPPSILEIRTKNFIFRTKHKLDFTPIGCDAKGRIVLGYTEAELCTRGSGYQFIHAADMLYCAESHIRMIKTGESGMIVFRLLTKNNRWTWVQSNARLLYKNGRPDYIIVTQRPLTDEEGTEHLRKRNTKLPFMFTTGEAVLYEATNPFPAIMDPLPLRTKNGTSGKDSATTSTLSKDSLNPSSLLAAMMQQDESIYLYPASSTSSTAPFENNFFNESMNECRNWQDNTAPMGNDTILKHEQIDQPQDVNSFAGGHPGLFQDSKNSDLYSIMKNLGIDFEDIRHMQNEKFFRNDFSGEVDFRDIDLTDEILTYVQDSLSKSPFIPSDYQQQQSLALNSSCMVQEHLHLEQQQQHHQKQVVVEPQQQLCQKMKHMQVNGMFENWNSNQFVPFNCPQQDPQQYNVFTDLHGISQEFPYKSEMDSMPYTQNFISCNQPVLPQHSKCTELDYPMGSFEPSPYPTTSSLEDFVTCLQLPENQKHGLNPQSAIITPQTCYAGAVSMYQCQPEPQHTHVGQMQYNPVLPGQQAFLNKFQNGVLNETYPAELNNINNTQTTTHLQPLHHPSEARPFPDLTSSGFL
SMILES,production of IFN-γ [1],production of IL-22 [2],anti-inflammatory properties in vivo [3],activation of the AhR [4]
"COc1ccc(Cc2nc3ccc(C(F)(F)F)cc3s2)cc1OC [compound 15, 2-(3,4-dimethoxybenzyl)-6-(trifluoromethyl)benzo[d]thiazole]",decreasing,strongly increases,–,–
"COc1cc(Nc2nc3ccccc3[nH]2)cc(OC)c1OC [compound 17, N (3,4,5-trimethoxyphenyl)-1H-benzo[d]imidazol-2-amine]",decreasing,strongly increases,–,–
C=CCn1nc(-c2ccc(OC)c(OC)c2)c2cccc(C(F)(F)F)c21 [SGA 360],–,–,exhibits anti-inflammatory properties in vivo,–
Cc1oncc1C(=O)Nc1ccc(C(F)(F)F)cc1 [Leflunomide],–,–,–,activates
